Numbers after ± are expanded uncertainties.
Assays:
[1] = 100 kPa, Liquid, Falling or rolling sphere viscometry
[2] = mn = molality of the nth substance listed, in mol/kg; conditions: 100 kPa, Liquid; for viscosity: Falling or rolling sphere viscometry; for mass density: Vibrating tube method

O [water]
[1]
Conditions	viscosity [mPa·s]
288.15 K	1.145 ± 0.014
293.15 K	1.01 ± 0.012
298.15 K	0.896 ± 0.011
303.15 K	0.801 ± 0.01
308.15 K	0.721 ± 0.009

O=C(O[C@@H]1Cc2c(O)cc(O)cc2O[C@@H]1c1cc(O)c(O)c(O)c1)c1cc(O)c(O)c(O)c1 + O
[2]
Conditions	mass density, 288.15 K [kg/m3]	mass density, 293.15 K [kg/m3]	mass density, 298.15 K [kg/m3]	mass density, 303.15 K [kg/m3]	mass density, 308.15 K [kg/m3]	viscosity, 288.15 K [mPa·s]	viscosity, 293.15 K [mPa·s]	viscosity, 298.15 K [mPa·s]	viscosity, 303.15 K [mPa·s]	viscosity, 308.15 K [mPa·s]
m1 = 0.0099	1000.71 ± 1	999.804 ± 1	998.637 ± 1	997.228 ± 1	995.598 ± 1	1.148 ± 0.014	1.014 ± 0.013	0.906 ± 0.011	0.815 ± 0.01	0.739 ± 0.009
m1 = 0.02	1002.36 ± 1	1001.44 ± 1	1000.26 ± 1	998.831 ± 1	997.195 ± 1	1.158 ± 0.014	1.021 ± 0.013	0.911 ± 0.011	0.82 ± 0.01	0.744 ± 0.009
m1 = 0.0298	1003.97 ± 1	1003.04 ± 1	1001.83 ± 1	1000.39 ± 1	998.752 ± 1	1.171 ± 0.015	1.034 ± 0.013	0.92 ± 0.011	0.827 ± 0.01	0.75 ± 0.009
m1 = 0.0399	1005.63 ± 1	1004.68 ± 1	1003.47 ± 1	1002.01 ± 1	1000.36 ± 1	1.187 ± 0.015	1.049 ± 0.013	0.934 ± 0.012	0.838 ± 0.01	0.759 ± 0.009
m1 = 0.0499	1007.26 ± 1	1006.29 ± 1	1005.05 ± 1	1003.6 ± 1	1001.92 ± 1	1.203 ± 0.015	1.062 ± 0.013	0.945 ± 0.012	0.849 ± 0.011	0.769 ± 0.01
m1 = 0.0601	1008.94 ± 1	1007.93 ± 1	1006.69 ± 1	1005.22 ± 1	1003.53 ± 1	1.222 ± 0.015	1.079 ± 0.014	0.959 ± 0.012	0.86 ± 0.011	0.778 ± 0.01

[Cl-].[Na+] [sodium chloride] + O
[2]
Conditions	mass density, 288.15 K [kg/m3]	mass density, 293.15 K [kg/m3]	mass density, 298.15 K [kg/m3]	mass density, 303.15 K [kg/m3]	mass density, 308.15 K [kg/m3]	viscosity, 288.15 K [mPa·s]	viscosity, 293.15 K [mPa·s]	viscosity, 298.15 K [mPa·s]	viscosity, 303.15 K [mPa·s]	viscosity, 308.15 K [mPa·s]
m1 = 0.1	1003.32 ± 1	1002.36 ± 1	1001.15 ± 1	999.711 ± 1	998.058 ± 1	1.146 ± 0.014	1.011 ± 0.012	0.892 ± 0.011	0.804 ± 0.01	0.73 ± 0.009
m1 = 0.2	1007.43 ± 1	1006.42 ± 1	1005.14 ± 1	1003.65 ± 1	1001.98 ± 1	1.149 ± 0.014	1.016 ± 0.013	0.901 ± 0.011	0.812 ± 0.01	0.738 ± 0.009
m1 = 0.3	1011.33 ± 1	1010.27 ± 1	1008.96 ± 1	1007.44 ± 1	1005.73 ± 1	1.151 ± 0.014	1.019 ± 0.013	0.91 ± 0.011	0.82 ± 0.01	0.745 ± 0.009
m1 = 0.4	1015.65 ± 1	1014.53 ± 1	1013.16 ± 1	1011.6 ± 1	1009.85 ± 1	1.158 ± 0.014	1.026 ± 0.013	0.917 ± 0.011	0.827 ± 0.01	0.751 ± 0.009
m1 = 0.5	1019.41 ± 1	1018.24 ± 1	–	1015.24 ± 1	1013.48 ± 1	1.165 ± 0.014	1.033 ± 0.013	0.925 ± 0.011	0.834 ± 0.01	0.76 ± 0.009

[Cl-].[Li+] [lithium chloride] + O
[2]
Conditions	mass density, 288.15 K [kg/m3]	mass density, 293.15 K [kg/m3]	mass density, 298.15 K [kg/m3]	mass density, 303.15 K [kg/m3]	mass density, 308.15 K [kg/m3]	viscosity, 288.15 K [mPa·s]	viscosity, 293.15 K [mPa·s]	viscosity, 298.15 K [mPa·s]	viscosity, 303.15 K [mPa·s]	viscosity, 308.15 K [mPa·s]
m1 = 0.1	1001.51 ± 1	1000.58 ± 1	999.41 ± 1	998.003 ± 1	996.382 ± 1	1.146 ± 0.014	1.011 ± 0.012	0.898 ± 0.011	0.809 ± 0.01	0.735 ± 0.009
m1 = 0.2	1004 ± 1	1003.06 ± 1	1001.87 ± 1	1000.45 ± 1	998.848 ± 1	1.154 ± 0.014	1.019 ± 0.013	0.909 ± 0.011	0.818 ± 0.01	0.743 ± 0.009
m1 = 0.3	1006.34 ± 1	1005.37 ± 1	1004.17 ± 1	1002.75 ± 1	1001.13 ± 1	1.169 ± 0.014	1.033 ± 0.013	0.921 ± 0.011	0.83 ± 0.01	0.753 ± 0.009
m1 = 0.4	1008.37 ± 1	1007.4 ± 1	1006.19 ± 1	1004.76 ± 1	1003.15 ± 1	1.183 ± 0.015	1.045 ± 0.013	0.932 ± 0.012	0.84 ± 0.01	0.762 ± 0.009
m1 = 0.5	1011.06 ± 1	1010.07 ± 1	1008.81 ± 1	1007.35 ± 1	1005.79 ± 1	1.201 ± 0.015	1.061 ± 0.013	0.948 ± 0.012	0.853 ± 0.011	0.774 ± 0.01

[Cl-].[K+] [potassium chloride] + O
[2]
Conditions	mass density, 288.15 K [kg/m3]	mass density, 293.15 K [kg/m3]	mass density, 298.15 K [kg/m3]	mass density, 303.15 K [kg/m3]	mass density, 308.15 K [kg/m3]	viscosity, 288.15 K [mPa·s]	viscosity, 293.15 K [mPa·s]	viscosity, 298.15 K [mPa·s]	viscosity, 303.15 K [mPa·s]	viscosity, 308.15 K [mPa·s]
m1 = 0.1	1003.85 ± 1	1002.92 ± 1	1001.71 ± 1	1000.28 ± 1	998.631 ± 1	1.145 ± 0.014	1.01 ± 0.012	0.896 ± 0.011	0.801 ± 0.01	0.722 ± 0.009
m1 = 0.2	1008.58 ± 1	1007.58 ± 1	1006.33 ± 1	1004.85 ± 1	1003.19 ± 1	1.145 ± 0.014	1.01 ± 0.012	0.896 ± 0.011	0.801 ± 0.01	0.723 ± 0.009
m1 = 0.3	1013.16 ± 1	1012.13 ± 1	1010.84 ± 1	1009.34 ± 1	1007.64 ± 1	1.145 ± 0.014	1.011 ± 0.012	0.897 ± 0.011	0.801 ± 0.01	0.726 ± 0.009
m1 = 0.4	1017.86 ± 1	1016.77 ± 1	1015.43 ± 1	1013.89 ± 1	1012.18 ± 1	1.147 ± 0.014	1.013 ± 0.013	0.897 ± 0.011	0.801 ± 0.01	0.73 ± 0.009
m1 = 0.5	1022.32 ± 1	1021.2 ± 1	1019.84 ± 1	1018.27 ± 1	1016.52 ± 1	1.152 ± 0.014	1.027 ± 0.013	0.899 ± 0.011	0.802 ± 0.01	0.73 ± 0.009
